Here are results for 1 molecule from patent US20250205158A1, “BIODEGRADABLE LIPIDS AND FORMULATIONS FOR DELIVERY OF MRNA” (Massachusetts Institute of Technology, priority 2023, published 2025).

The nature of data set [1]: 31P NMR membrane fusion study. In kind it is physicochemical. Conditions: acidic pH. The method, then:
(§1) Structural features of AMG lipids that facilitate mRNA delivery. The factors contributing to lipid potency were evaluated. The ionization properties of AMG1541 LNPs were investigated using a previously established 6-(p-toluidino)-2-napthalenesulfonic acid (TNS) assay.^22 The pKa of AMG LNPs showing higher in vivo mRNA transfection than SM-102 ranged between pH 6.4-6.7. […] In addition to endosomal buffering, it is hypothesized that the protonated ionizable lipids within the acidic endosome bind with anionic phospholipids within the endosomal membrane, destabilizing the membrane's bilayer and promoting endosomal pore formation.^17,52 The membrane fusion properties of the ionizable lipids was evaluated via ^31P NMR. When bilayer forming DPPS vesicles were mixed with equimolar AMG lipid under acidic conditions, a bilayer to hexagonal phase transition was observed, indicating their membrane-destabilizing nature (FIG. 15D).

Data set [2] concerns mice. Put plainly: IFN-γ ELISpot and supernatant cytokines of peptide-stimulated splenocytes after HA mRNA vaccination. In kind it is in vivo, BALB/cJ and C57B1/6J mice. The procedure:
Further experiments to evaluate the dose-sparing potential of AMG1541 were performed for influenza vaccination.^34,35 The immunogenicity of AMG1541 was compared to the clinical benchmark SM-102 by formulating each into LNPs containing hemagglutinin (HA) (A/Tasmania/503/2020 H3N2) mRNA. BALB/cJ mice were vaccinated with […] of these mRNA LNPs and the quality of humoral and cellular immunity following vaccination was evaluated. Enhancing each component of immunity contributes to improving vaccine protection—humoral immunity provides protection against initial infection while cellular immunity improves the clearance of breakthrough infections. […] Male and female mice vaccinated with AMG1541 had 15.8- and 6.8-fold higher endpoint titers, respectively (FIG. 13C). […] Serum cytokines were examined 6 hours after the boost dose to determine whether the enhanced immunogenicity of AMG1541 also led to increased systemic inflammation (FIGS. 20A-20C). […]
IFN-γ ELISpot. […] Cells were then pelleted, resuspended in PBS+1% BSA, and counted using a countess 3 automated cell counter (ThermoFisher). […]
Luminex. […] The supernatants from the stimulated splenocytes used for the ELISpot assay were analyzed using Eve Technologies' Mouse High Sensitivity 18-Plex Discovery Assay® (MilliporeSigma, Burlington, Massachusetts, USA) according to the manufacturer's protocol. […]

The subject of data set [3] is Lentiviruses pseudotyped with the B.1.617.2 spike protein. In kind it is cell-based. The settings on record: 293T-ACE2 cells, GFP reporter.
Data set [4] is described as follows: TNS assay of LNP pKa. In kind it is physicochemical. The procedure:
as §1

Data set [5] deals with liver. The data set is described as follows: fLuc mRNA LNP protein expression after intravenous injection. In kind it is in vivo. The settings on record: 0.25 mg/kg dose, 6 hrs. The method, then: Evaluation of the LNPs via intravenous injection. The lipids were initially evaluated for intravenous protein expression by administration of a 0.25 mg/kg dose […] of fLuc mRNA LNPs.

Data set [6] is described as follows: in vivo. The settings on record: C57BL/6, mouse, im.

The half-life is how long it takes for the measured level to halve. High values mean slow loss, low ones fast loss. For `CCCCCC/C=C\CCCC(=O)OCC(O)CN1CCN(CC(O)COC(=O)CCC/C=C\CCCCCC)CCN(CC(O)COC(=O)CCC/C=C\CCCCCC)CCN(CC(O)COC(=O)CCC/C=C\CCCCCC)CCN(CC(O)COC(=O)CCC/C=C\CCCCCC)CCN(CC(O)COC(=O)CCC/C=C\CCCCCC)CC1` (stereo not shown) [AMG1541], in data set [1], the “31P NMR phase behaviour” value is listed as “bilayer membrane to hexagonal HII transformation”. The “cytokines in media from splenocytes stimulated with MHC-binding peptides” value in data set [2] (BALB/cJ mice, HA mRNA, dose=1 μg) was “significant upregulation of IL-4, and IL-5 in both male and female mice and IL-10 in female mice”. Further, the “fold more Spot Forming Units (SFU) relative to SM-102” value in data set [2] (IFN-γ ELISpot, MHC-I stimulated splenocytes, female C57B1/6J mice) came out at 6.6 fold. In data set [3], the “fold higher infection inhibition IC50 than AMG1041” value was “approximately 2 fold”. For the same molecule, the “LNP pKa” value in data set [4] is listed as around 6.5. The “protein expression after intravenous fLuc mRNA LNPs” value in data set [5] is reported as “comparable levels of protein expression to lipid MD-1”. The molecule also had a half-life in data set [6] of 3 h.
